We go through eight compounds from ChEMBL document CHEMBL1914374, “Effect of different C3-aryl substituents on the antioxidant activity of 4-hydroxycoumarin derivatives” (Bioorg Med Chem, 2011).

What all share (assay type): functional
Test [1] in a line: Antioxidant activity assessed as trolox equivalents of ABTS radical scavenging activity by TEAC assay.
Test [2] concerns Radical scavenging activity. The test can be described thus: Antioxidant activity assessed as DPPH free radical scavenging activity after 10 mins by UV-Vis spectrophotometric analysis. On the technique in general: The DPPH test is a chemical assay of radical scavenging.
Test [3] is described as follows: Antioxidant activity in soybean lipoxygenase-induced beta-carotene-linoleic acid co-oxidation assessed as inhibition of beta-carotene bleaching after 10 mins relative to control. Details: scale not given: the % may be the effect or the level left.

Structures are written as SMILES.

Turning to `O=c1oc2ccccc2c(O)c1-c1ccccc1Cl`, in test [1], the Activity was 50 µmolequiv/g. Further, the EC50 – broadly, the concentration needed to bring the measured effect to its halfway point – in test [2] stood at 4.14 mM.
For the compound `O=c1oc2ccccc2c(O)c1-c1cccc2ccccc12`, the Activity in test [1] is 56.8 µmolequiv/g; in test [3] it was 4.26 %/mmol. For the same compound, the EC50 in test [2] worked out at 6.41 mM.
On the same counts, the results for `COc1ccccc1-c1c(O)c2ccccc2oc1=O` are 567 µmolequiv/g, 25.5 %/mmol and 1.92 mM.
In the same order, the values of `O=c1oc2ccccc2c(O)c1-c1ccc(Cl)cc1` are 50 µmolequiv/g, 5.94 %/mmol and 4.15 mM.
In the same order, the values of `O=c1oc2ccccc2c(O)c1-c1ccccc1` are 46.6 µmolequiv/g, 5.79 %/mmol and 4.19 mM.
As for `Cc1cc(=O)oc2cc(O)ccc12` [HYMECROMONE], the Activity is 54.8 µmolequiv/g in test [1] and < 0.5 %/mmol in test [3]. Moreover, the EC50 in test [2] turned out to be 8.9 mM.
As for `COc1ccc(-c2c(O)c3ccccc3oc2=O)cc1`, the Activity in test [1] was 699 µmolequiv/g; in test [3], 23.1 %/mmol. In addition, in test [2], the EC50 is 0.54 mM.
On the same counts, the results for `O=c1cc(O)c2ccccc2o1` [4-HYDROXYCOUMARINS] are 186 µmolequiv/g, 2.07 %/mmol and 3.8 mM.
